Tested on: B-RBD-D211A, D213A
Test: BRET-titration Gal1/B-RBD-D211A, D213A
Format: cell-based, human
Settings: versus wild-type, n = 3

Gal1: galectin-1, H-Ras nanocluster scaffold
BRETtop, Gal1/B-RBD-D211A, D213A: significantly reduced
